ChEMBL document CHEMBL3414535, “Identification and optimization of Escherichia coli GlmU inhibitors: an in silico approach with validation thereof” (Eur J Med Chem, 2015)

Target: Bifunctional protein GlmU (Escherichia coli (strain K12), UniProt P0ACC7)
Assay: Inhibition of Escherichia coli GlmU acetyltransferase activity assessed as coenzyme A production using acetyl CoA substrate

Sequence of Bifunctional protein GlmU (P0ACC7 whole entry): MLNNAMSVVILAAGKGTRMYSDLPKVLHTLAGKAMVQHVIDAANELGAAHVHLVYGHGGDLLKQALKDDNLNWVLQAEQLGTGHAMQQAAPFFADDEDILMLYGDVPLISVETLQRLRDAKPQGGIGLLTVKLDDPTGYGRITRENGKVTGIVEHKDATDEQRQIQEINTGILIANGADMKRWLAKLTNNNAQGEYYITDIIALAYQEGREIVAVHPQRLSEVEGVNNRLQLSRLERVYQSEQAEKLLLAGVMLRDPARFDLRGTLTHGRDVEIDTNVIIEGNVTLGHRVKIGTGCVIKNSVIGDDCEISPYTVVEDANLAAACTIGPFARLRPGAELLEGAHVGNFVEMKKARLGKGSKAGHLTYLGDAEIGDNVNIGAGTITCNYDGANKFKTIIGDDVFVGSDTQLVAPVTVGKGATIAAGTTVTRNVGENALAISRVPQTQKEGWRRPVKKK

Structure (SMILES) | IC50 [nM]
COc1cc(OC)c(S(=O)(=O)N2c3ccccc3Oc3ccccc32)cc1NC(=O)Cc1ccncc1 | 60
COc1cc(OC)c(S(=O)(=O)NCc2ccccc2N2CCC(C(=O)O)CC2)cc1NC(=O)CCC(=O)O | 500
COc1cc(OC)c(S(=O)(=O)N(c2ccccc2)c2ccccc2)cc1NC(=O)CCC(=O)O | 40
COc1cc(OC)c(S(=O)(=O)N2c3ccccc3CC[C@@H]2C)cc1NC(=O)CCc1nn[nH]n1 | 430
COc1cc(OC)c(S(=O)(=O)NCc2ccccc2N2CCCCC2)cc1NC(=O)CCC(=O)O | 3000
COc1cc(OC)c(S(=O)(=O)N2CCC[C@H]2C)cc1NC(C)=O | 200000
COc1cc(OC)c(S(=O)(=O)NCc2ccccc2N2CCCCC2)cc1NC(C)=O | 200000
COc1cc(OC)c(S(=O)(=O)N(c2ccccc2)c2ccc3ccccc3c2)cc1NC(=O)CCC(=O)O | 40
COc1cc(OC)c(S(=O)(=O)Nc2ccc(F)cc2)cc1NC(C)=O | 25000
COc1cc(OC)c(S(=O)(=O)N2c3ccccc3Sc3ccccc32)cc1NC(=O)CCC(=O)O | 90
